“Also recorded” adds a separate entry of the source. Read-outs that look alike come from different tables or passages of the source. Where a SMILES comes first, the peptide text is derived from it. The star is where a group is joined. Cbz = O=C(OCc1ccccc1)*
How the values were obtained:
[1] = test system: P53; test: P53 level in mDA cultures under proteasome inhibitor, 24 hrs (western blot); format: cell-based, human; settings: mDA/DaN cultures, 24 hrs treatment
Procedure: Protein degradation can be largely divided into protosomal and autophagy/lysosomal degradation pathways.
Western blot: Cells were gently scraped off the plates, washed with PBS, centrifuged at 15000 RPM for 1 min, and dry pellets were frozen at −80° C. Samples were then thawed and lysed using 1×NETN buffer (20 mM Tris-HCl (pH 8.0), 100 mM NaCl, 0.5 mM EDTA and 0.5% NP-40) supplemented with phosphatase/protease inhibitor cocktail (MS-SAFE, Sigma-Aldrich). Lysates were sonicated in an automated cold bath sonicator for 20 mins using alternating 10 sec pulses followed by 10 sec rests. Samples were centrifuged for 20 min at 4° C. at 15000 RPM. Total soluble protein concentrations were measured using a Bradford assay (BIO-RAD). […] Combined α-synuclein and p-PKCα expression plots were calculated by first normalizing bands to β-actin, then to the 02iCTR signal present in each blot. […] ROC plot and area under the curve was determined using R package ROCR to determine predicative probability percentages.
To test overall degradation rates, global […] function was inhibited in culture for 48 hours via cycloheximide treatment and protein was assessed and quantified over time. […] A significant reduction in the amount of LAMP1 was detected in all 3 EOSPD lines, which was consistent with the proteomics analysis. […]

[2] = test system: α-synuclein; test: α-synuclein protein level in day 30 iPSC-derived mDA (DaN) cultures after drug treatment (western blot, immunostaining); format: cell-based, human; settings: control and EOSPD cultures, 24 hrs treatment
[3] = test system: α-synuclein; test: as above; format: cell-based, human; settings: for synuclein level: D30 mDA neurons (FIG. 37); for α-synuclein level: phorbol ester PKC agonists, PMA 10 μM, PRO 5 μM, day 27-30; for α-synuclein levels (western blot): EOSPD/PD cultures (190iPD); for α-synuclein levels (western blot) / amount of α-synuclein protein (western blot): treated 3 days from day 27, PEP005 1 μM, SMER-28 5 μM, Trehalose; for amount of α-synuclein protein (western blot): control line cultures (02iCTR)
Procedure: (§1) iPSC maintenance, mDA neuron differentiation and drug treatments: iPSCs were maintained in E8 media on Matrigel and passaged every 5 days at split ratios from 1:6 to 1:12 as needed using Versene. Only iPSCs between passage 17 and passage 35 were used in this study. For differentiation, iPSCs were grown to ˜80% confluency. Cells were singularized with Accutase (Millipore/Sigma #SCR005) (5 minutes at 37° C.) and plated onto Matrigel-coated 6-well plates (BD Biosciences) at 200K cells per cm^2 (for a fully confluent monolayer) in E8 media with 5 μM Y27632 (StemGent). 24 hours after plating, media was changed to Stage 1 (50% DMEM/F12, 50% Neurobasal, N2, B27-Vitamin A, LDN-193189 (LDN), SB431542 (SB)). Stage 1 media was changed each day (3 mL per well) for 3 days. Media was next switched to Stage 2 (50% DMEM/F12, 50% Neurobasal, N2, B27-Vitamin A, LDN, SB, Purmorphamine (PMN), CHIR99021 (CHIR), Sonic hedgehog (SHH), Fibroblast Growth Factor 8 (FGF8)). Stage 2 media was changed each day (3 mL per well) for 4 days. Media was then switched to Stage 3 (50% DMEM/F12, 50% Neurobasal, N2, B27-Vitamin A, LDN, CHIR, all-trans-Retinoic acid (ATRA)). Stage 3 media was changed each day (3 mL per well) for 4 days. Finally, media was switched to Stage 4 (50% DMEM/F12, 50% Neurobasal, N2, B27+Vitamin A, Brain-Derived Neurotrophic Factor (BDNF), Glial Cell Line-Derived Neurotrophic Factor (GDNF), dibutyryl cyclic-AMP sodium salt (dbCAMP), L-Ascorbic Acid (AA), γ-Secretase inhibitor (DAPT), CHIR, Transforming Growth Factor beta-3 (TGF β3)). Stage 4 media was changed each day (3 mL per well) for 3 days. On day 15, cells were dissociated to single cells using Accutase (20 mins at 37° C.) and gently lifted. Dissociated cells were resuspended in Maturation Medium (50% DMEM/F12, 50% Neurobasal, N2, B27+Vitamin A, BDNF, GDNF, dbCAMP, AA, DAPT, TGF3) plus 5 μM Y27632 and reseeded onto Matrigel-coated 6-well plates at 200 k/cm^2 in 1 mL total volume or onto Matrigel-coated L-glass coverslips in a 24-well plate at 200 k/50 μL drop. Cells were allowed to attach for 45 mins at 37° C. and Maturation Medium was then added to final volumes of 3 mL per well for 6-well plates or 1.5 mL per well for 24-well plates with coverslips. A full medium change was performed 48-hours post-seeding and medium was changed every 3 days until day 30. For drug treatments, cells at day-27 were fed with Maturation Medium containing the indicated drug and cells were analyzed at day 30.
Immunocytochemistry and imaging: mDA neuron cultures were plated on L-glass coverslips and grown as above. Day 30 neurons were fixed in 4% PFA at room temperature for 10-15 mins. Fixed coverslips were washed in PBS and permeabilized for 10 minutes at room temperature in 1% Triton X-100 in PBS, followed by staining in primary antibody solution (5% normal donkey serum, 0.125% Triton-X, PBS) overnight at 4° C. with the following antibodies: TH (1:5000, Immunostar #22941) and α-synuclein (1:500, Abcam #ab138501). Samples were washed 3 times in PBS and stained with species-specific Alexa Fluor 488 or 594-conjugated secondary antibodies (1:500, Invitrogen) for 2 hours at room temperature, followed by DAPI counterstain. Confocal Z-stack images were acquired using a A1 microscope (Nikon) with 40× and 20× objectives and rendered using maximum intensity projection through IMARIS software (Bitplane).
Western blot: Cells were gently scraped off the plates, washed with PBS, centrifuged at 15000 RPM for 1 min, and dry pellets were frozen at −80° C. Samples were then thawed and lysed using 1×NETN buffer (20 mM Tris-HCl (pH 8.0), 100 mM NaCl, 0.5 mM EDTA and 0.5% NP-40) supplemented with phosphatase/protease inhibitor cocktail (MS-SAFE, Sigma-Aldrich). Lysates were sonicated in an automated cold bath sonicator for 20 mins using alternating 10 sec pulses followed by 10 sec rests. Samples were centrifuged for 20 min at 4° C. at 15000 RPM. Total soluble protein concentrations were measured using a Bradford assay (BIO-RAD). […]

[4] = test system: p-PKCα; settings: for phospho PKCα level: D30 mDA neurons (FIG. 37)
[5] = test system: tyrosine hydroxylase (TH); format: cell-based, human; settings: mDA cultures, phorbol ester PKC agonists; PMA 10 μM, PRO 5 μM, day 27-30
Procedure: as §1
Analytical flow cytometry: Day-30 cultures in 6-well plates were washed once in phosphate buffered saline (PBS) then 1 mL Accutase was added to each well and incubated for 25 mins at 37° C. or until the cells fully lifted. Cells were washed with an additional 2 mL Maturation Medium and very gently triturated until large clumps were no longer visible at which point cells were pelleted by centrifugation (1500 RPM for 3 mins). Cells were gently resuspended in 4% paraformaldehyde (PFA) in PBS and allowed to fix for 10-15 mins at room temperature. Fixed single cells were permeabilized using 1% Trition X-100 (Sigma-Aldrich) and stained using primary antibodies against TH (1:500 Immunostar, 22941), α-synuclein (1:1000 Abcam, ab138501), and MAP2ab (1:1000 Sigma-Aldrich, M1406), or isotype controls at same dilution (Cell Signaling IgG Isotype Control rabbit #3900S and mouse #5415S). Secondary antibodies (Alexa Fluor 488 and 594 donkey anti-mouse and donkey anti-rabbit, Invitrogen) were used at 1:500. Stained samples were quantified on an LSR Fortessa cytometer using BD FACSDiva software.
Immunocytochemistry and imaging: mDA neuron cultures were plated on L-glass coverslips and grown as above. Day 30 neurons were fixed in 4% PFA at room temperature for 10-15 mins. […]

CC(C)C[C@@H](C=O)NC(=O)[C@H](CC(C)C)NC(=O)[C@H](CC(C)C)NC(=O)OCc1ccccc1 [MG132] (Cbz-Leu-Leu-Leu-aldehyde)
P53 level [1]: accumulation | α-synuclein levels under proteasome inhibition [2]: no significant increase; also recorded: no substantial change

CCC/C=C/C=C/C(=O)O[C@H]1/C(=C/C(=O)OC)C[C@H]2C[C@H]([C@@H](C)O)OC(=O)C[C@H](O)C[C@@H]3C[C@H](OC(C)=O)C(C)(C)[C@](O)(C[C@@H]4C/C(=C/C(=O)OC)C[C@H](/C=C/C(C)(C)[C@]1(O)O2)O4)O3 [Bryostatin 1]
synuclein level [3]: unclear effects | synuclein level ([3]; listed as Bryostratin): did not seem to affect | phospho PKCα level [4]: reduction | phospho PKCα level ([4]; listed as Bryostratin): did not seem to affect

CC(=O)O[C@@]12C[C@@H](C)[C@@]3(O)[C@@H](C=C(CO)C[C@]4(O)C(=O)C(C)=C[C@@H]34)[C@@H]1C2(C)C [PRO, Prostratin]
α-synuclein expression, dose response ([3]; dose response study, mDA cultures): decreased | α-synuclein level ([3]; mDA cultures): reduction | TH level [5]: increases

C=CCNc1ncnc2ccc(Br)cc12 [SMER28]
α-synuclein levels (western blot) [3]: not | amount of α-synuclein protein (western blot) [3]: significantly reduced | amount of α-synuclein protein (western blot) ([3]; listed as SMER-28): reduction

CCCCCCCCCCCCCC(=O)O[C@@H]1[C@@H](C)[C@@]2(O)[C@@H](C=C(CO)C[C@]3(O)C(=O)C(C)=C[C@@H]23)[C@@H]2C(C)(C)[C@]12OC(C)=O [PMA, Phorbol 12-myristate 13-acetate]
α-synuclein level ([3]; mDA cultures): reduction | TH level [5]: increases | p-PKCα level ([4]; mDA cultures, phorbol ester PKC agonists, PMA 10 μM, PRO 5 μM, day 27-30): reduction

OC[C@H]1O[C@H](O[C@H]2O[C@H](CO)[C@@H](O)[C@H](O)[C@H]2O)[C@H](O)[C@@H](O)[C@@H]1O [Trehalose]
α-synuclein levels (western blot) [3]: reduced; also recorded: reduction

From patent US12564568B2, “PKC pathway in Parkinson's Disease” (CEDARS-SINAI MEDICAL CENTER, priority 2018, dated 2026)
